These results are taken from ChEMBL document CHEMBL1124905, “Synthesis of new (+-)-3,5-dihydroxypentyl nucleoside analogues from 1-amino-5-(benzyloxy)pentan-3-ol and their antiviral evaluation” (J Med Chem, 1990).

Series [1] deals with Human immunodeficiency virus 1. The experiment in a line: Antiviral activity against HIV-1 was determined; No inhibition. The format is functional, organism-based.
For another series, the system named is Human betaherpesvirus 5. Kind of series: Antiviral activity against HCMV was determined; No inhibition. It counts as functional, organism-based.
The subject of a further series is MRC5. Kind of series: Concentration required for cytotoxicity of MRC5 cell line was determined. The format is functional, cell-based. Particulars: Homo sapiens.
The test system of series [2] is Human alphaherpesvirus 1. Kind of series: Concentration required for suppression of the CPE (Cytopathic effect) of HSV-1. The note with it: herpes simplex virus. It counts as functional, organism-based. Background: Damage to the host cells serves as the signal in cytopathic effect assays.
Series [3] concerns Human alphaherpesvirus 1. The experiment in a line: Compound tested for inhibition of theCPE (Cytopathic effect) of HSV-1 at 12.5 ug/mL. The format is functional, herpes simplex virus.
The nature of series [4]: Compound tested for toxic activity at 100 ug/mL; Not toxic. The format is ADME.

Activity calls are given as the source filed them. No cut-off for these calls is given here.

As a reminder, the inhibition is the relative decrease from the control value, in per cent. For the compound `Nc1ncnc2c1ncn2C[C@@H](CO)OCP(=O)(O)O`, the inhibition entry (in series [1]; in the series on Human betaherpesvirus 5) was “inactive” in each case.
In the case of `Nc1ncnc2c1ncn2CCC(O)CCO` (configuration not stated), the inhibition result (in series [1]; with Human betaherpesvirus 5) was “inactive” in each case. In the series with MRC5, this compound had a Concentration of 25 µg/mL.
With `Nc1nc2c(ncn2COC(CO)CO)c(=O)[nH]1`, the NA entry (in series [1]; in the series on Human betaherpesvirus 5) was “inactive” each time.
With `Nc1nc(O)c2ncn(CC[C@H](O)CCO)c2n1`, the inhibition result (in series [1]; in the series with Human betaherpesvirus 5) was “inactive” each time. This compound had a Concentration in the series with Human alphaherpesvirus 1 [2] of 50 µg/mL. The inhibition at 12.5 µg/mL with Human alphaherpesvirus 1 [3] was found to be 50%. Besides, the Toxicity result in series [4] is given as “Non-toxic”.
With `Nc1nc2c(ncn2CCCCO)c(=O)[nH]1`, the inhibition result (in series [1]; in the series with Human betaherpesvirus 5) was “inactive” throughout.
In the case of `Nc1ncnc2c1ncn2CCOCP(=O)(O)O`, the inhibition result (in series [1]; in the series on Human betaherpesvirus 5) was “inactive” throughout.
`Nc1nc(O)c2ncn(CC(CO)CCO)c2n1` (configuration not stated): the inhibition result (in series [1]; in the series on Human betaherpesvirus 5) was “inactive” each time.
As for `Nc1ccn(CCC(O)CCO)c(=O)n1` (configuration not stated), the inhibition entry (in series [1]; with Human betaherpesvirus 5) was “inactive” throughout.
In the case of `Nc1nc2c(ncn2CC[C@@H](O)CO)c(=O)[nH]1`, the inhibition entry (in series [1]; in the series on Human betaherpesvirus 5) was “inactive” throughout.
Consider `Nc1nc2c(ncn2COCCO)c(=O)[nH]1`, for which the inhibition entry (in series [1]; in the series with Human betaherpesvirus 5) was “inactive” throughout.
Regarding `Nc1nc(O)c2ncn(CCC(CO)CO)c2n1`, the inhibition result (in series [1]; in the series with Human betaherpesvirus 5) was “inactive” each time.
Turning to `Nc1ncnc2c1ncn2C=C=CCO`, the inhibition entry (in series [1]; with Human betaherpesvirus 5) was “inactive” in each case.
Regarding `Nc1ncnc2c1ncn2C[C@H](O)CO`, the inhibition entry (in series [1]; with Human betaherpesvirus 5) was “inactive” in each case.
Turning to `Cc1cn(CCC(O)CCO)c(=O)[nH]c1=O` (configuration not stated), the inhibition entry (in series [1]; with Human betaherpesvirus 5) was “inactive” in each case.
